# Results taken from PMC10063609, “Discovery of novel cardiac troponin activators using fluorescence polarization-based high throughput screening assays” (Scientific Reports, 2023).
# “And” between values parts separate entries of the source, which are not always exact repeats. Equal entries are not always repeated. Structures can show the parent of a compound that is named as a salt. Where two headings read alike, the source gives them in different places.
# Tests used:
# [1] = biological target: interaction between cTnC and the anchoring region of cTnI (cTnIAR) (Homo sapiens, UniProt P63316); experiment: Fluorescence polarization HTS, binding and dose-response, cTnC/FAM-cTnIAR; conditions: for FP (mP): cTnIAR primary screen, single concentration 10 μmol/L; for Effect on FP from the cTnC FAM-cTnIAR mixture: dose-response, concentration dependent (Fig. 2c); for FP at higher drug concentrations: > 10 μmol/L, potentially assay interference; for Total fluorescence intensity of the assay mixture: concentrations of up to 100 μmol/L, 2 nmol/L FAM-cTnIAR, 5 nmol/L cTnC
# Protocol: (§1) Each compound was tested at a concentration of 50 μmol/L and 10 μmol/L for the cTnISP and cTnIAR screen, respectively. Hits were defined as compounds that changed the average FP value more than five-times the standard deviation (SD) (Fig. 1d, red lines). Moreover, compounds that either increased or decreased the total fluorescence intensity (FI) more than five-times the SD were removed from further analysis, indicating either compound aggregation or unspecific interactions with the fluorophore or protein complex.
# (§2) Libraries were reformatted from 96-well plates to Greiner 384-well black plates using a GILSON PipetMax. The plates were sealed with adhesive foil and stored at − 20 °C until further use. […] A total of 40 nL of 10 mmol/L compound stocks were transferred to each well using a Mosquito liquid handler system (final DMSO concentration of 0.1% (v/v)). The plates were incubated in the dark for 30 min at 25 °C, and the fluorescence polarization from each well was measured using a ClarioStar Plate reader with appropriate excitation and emission filter settings. Dose–response curves were constructed by serial dilution of compounds in DMSO and adding a fixed volume to a mixture of peptide and cTnC.
# (§3) Fluorescence polarization dose–response and binding experiments were performed in Greiner 384-well black plates in assay buffer (20 mmol/L Tris–HCl pH 7, 100 mmol/L NaCl, 1 mmol/L CaCl2, 1 mmol/L DTT) at 25 °C.
# [2] = biological target: interaction between cTnC and switch peptide of cTnI (cTnISP) (Homo sapiens, UniProt P63316); experiment: Fluorescence polarization HTS and dose-response, cTnC/FAM-cTnISP; assay type: binding; conditions: for FP (mP): cTnISP primary screen, single concentration 50 μmol/L; for Effect on FP from a mixture of FAM-cTnISP and cTnC: dose-response, concentration dependent (Fig. 2a)
# Protocol: as §1, §2, §3
# [3] = tested on: bovine cardiac myofibrils; experiment: NADH-coupled ATPase activity of isolated cardiac myofibrils; assay type: biochemical; conditions: for Effect on ATPase activity of cardiac myofibrils: submaximal calcium activation (~30% of maximum), pCa 6, up to 100 μmol/L; for Effect on myofibrillar ATPase activity / Decrease of myofibrilar ATPase activity: sub-maximal activation (~70% of maximal); for Effect on myofibrillar ATPase activity: pCa 5.8, up to 100 μmol/L; for Decrease of myofibrilar ATPase activity: pCa 5.8
# Protocol: Bovine cardiac myofibrils (CMF) were freshly prepared from bovine ventricle as previously described[49]. The NADH-coupled ATPase assay was adapted to test the effects of drugs on bovine cardiac myofibrils[50]. Briefly, buffers with varying free [Ca^2+] were prepared by adding the appropriate concentrations of EGTA and CaCl2 calculated using the MAXCHELATOR software. ATPase assays for hits identified in the cTnI switch peptide and anchoring region screens were performed at pCa 6 and pCa 5.8, respectively. […] 20 μL Enzyme mix was added to individual wells using a 12-well multichannel pipette. Appropriate concentrations of drugs were added to each well and the plate was shaken at 1000 rpm for 5 min on a plate shaker and further incubated at room temperature for 10 min. Substrate mix was dispensed into each well using the Gilson PipetMax. The plate was briefly spun down to ensure removal of air bubbles. The reaction was followed by recording the fluorescence intensity of each well with excitation at 380 nm and emission at 470 nm, for 10 min scanning the plate every 30 s. The temperature was kept constant at 25 °C. ATPase rates were extracted by linear regression to datapoints in GraphPad Prism.
# [4] = tested on: demembranated human donor ventricular tissue; experiment: Force-pCa titrations of demembranated human donor myocardium; assay type: cell-based; conditions: 100 μmol/L, 2 μm sarcomere length
# Protocol: We tested for the functional effects of hit compounds by measuring the calcium sensitivity of force development of chemically demembranated human donor ventricular tissue at 2 μm sarcomere length in the absence and in the presence of 100 μmol/L compounds (Fig. 6). Force-pCa (pCa = −log10[Ca^2+]) relations for each preparation was measured in the absence and in the presence of each compound, so that each muscle preparation served as its own control.
# Briefly, each demembranated cardiac muscle strip underwent a control force-pCa titration in the absence of compounds with the sarcomere length adjusted to about 2 µm by laser diffraction. Drugs were freshly diluted in DMSO and added to physiological buffer solutions. The final DMSO concentration was held constant at 0.2% (v/v). Subsequently, demembranated human heart muscle strips were equilibrated in relaxing solution (pCa 7) containing the appropriate concentrations of drugs for 25 min at 22 °C and the force-pCa titration repeated. Thus, each cardiac muscle strip served as its own negative control and force data were normalized to the maximal force of each preparation in the absence of compounds.
# [5] = Solubility in aqueous buffer; assay type: physicochemical
# Protocol: Figure S2. […] D MSO stocks of NS5806 were diluted with assay
# buffer to the indicated concentrations (fixed DMSO concentration of 0.1% (v/v)), potential
# aggregates removed by ultra -centrifugation and the absorbance at 296 nm plotted against the
# in aqueous buffers up to a concentration of at least 500 µmol/L. (B) Total fluorescent intensity
# dose-response curves for Claramine (red) and Furamidine (green) in the presence of 2 nmol/L
# (1 picture or pasted object on this page, not shown here)
# Ca2+-saturated cTnC = Ca2+-saturated cTnC (Homo sapiens, UniProt P63316); experiment: ITC binding to full length Ca2+-saturated cTnC; conditions: for Kd: means ± SEM, n = 3
# cTnC-cTnIAR interaction = cTnC-cTnIAR interaction (Homo sapiens, UniProt P63316); experiment: ITC titration of unlabelled cTnIAR peptide into cTnC without or with compound
compound,measurement,setting,value
O=C1c2c(O)ccc(O)c2C(=O)c2c(NCCNCCO)ccc(NCCNCCO)c21 [Mitoxantrone],FP (mP),[1]; LOPAC 1280 library,57.1 mP
CCN1CCN(C(=O)Cc2ccc(Nc3ncc(F)c(Nc4ccc(C(=O)Nc5ccccc5Cl)cc4)n3)cc2)CC1 [TC-S 7010],FP (mP),[1]; TOCRIScreen library,108.3 mP
N.N.O=C([O-])C1(C(=O)[O-])CCC1.[Pt+2] [Carboplatin],FP (mP),[1]; ENZO Screenwell library,67.3 mP
CCOc1cc(CC(=O)N[C@@H](CC(C)C)c2ccccc2N2CCCCC2)ccc1C(=O)O [Repaglinide],FP (mP),[1]; TOCRIScreen library,103.2 mP
Cc1cn[nH]c1 [Fomepizole],FP (mP),[1]; ENZO Screenwell library,118 mP
Colistin Sulfate,FP (mP),[2]; ENZO Screenwell library,78.5 mP
same,FP (mP),[1]; ENZO Screenwell library,71.7 mP
Cc1ccc2[nH]c(=O)c(C3=NN(C(=O)CCC(=O)O)C(c4ccc(Br)cc4)C3)c(-c3ccccc3)c2c1 (centres unmarked) [DQP 1105],FP (mP),[1]; TOCRIScreen library,103 mP
CN(C)c1cc2c(Nc3ccc4c(cnn4Cc4ccccc4)c3)ncnc2cn1 [GW2974],FP (mP),[1]; LOPAC 1280 library,117.8 mP
O=C(Nc1cccc(C(F)(F)F)c1)Nc1ccc(Br)cc1-c1nn[nH]n1 [NS3623],FP (mP),[2]; TOCRIScreen library,121.6 mP
same,Effect on FP from a mixture of FAM-cTnISP and cTnC,[2],increased the FP
same,Effect on ATPase activity of cardiac myofibrils,[3],significantly increased the ATPase activity
O=C(O)c1cccc(-c2ccc(-c3cn(C(=O)N4CCCCC4Cc4ccccc4)nn3)cc2)c1 (centres unmarked) [KT203],Effect on myofibrillar ATPase activity,[3],no effect
same,FP (mP),[1]; LOPAC 1280 library,71.7 mP
same,Effect on FP from the cTnC FAM-cTnIAR mixture,[1],decreased the FP
O=C(O)c1ccc(/C=C2\SC(=S)N(c3cccc(C(F)(F)F)c3)C2=O)cc1 [CFTR Inh172],FP (mP),[2]; TOCRIScreen library,127.9 mP
same,Effect on FP from a mixture of FAM-cTnISP and cTnC,[2],increased the FP
same,Effect on ATPase activity of cardiac myofibrils,[3],no or little activation
CN(C)CCCn1cc(C2=C(c3c[nH]c4ccccc34)C(=O)NC2=O)c2ccccc21 [GF 109203X],FP (mP),[2]; TOCRIScreen library,82.4 mP
same,FP (mP),[1]; TOCRIScreen library,104.5 mP
Oc1c2ccccc2c2c3c(cccc13)N=N2 [SP600125],FP (mP),[1]; LOPAC 1280 library,65 mP
O=C(O)c1ccc(-c2ccc(/C=C3\SC(=S)N(Cc4ccccc4)C3=O)o2)cc1 [Leukadherin-1],FP (mP),[1]; LOPAC 1280 library,121.9 mP
N=C(N)c1ccc(-c2ccc(-c3ccc(C(=N)N)cc3)o2)cc1 [Furamidine],Effect on calcium sensitivity / force-pCa relation,[4],slightly increased the calcium sensitivity
same,Effect on maximal isometric force development,[4],no effect
same,Steepness of the force-pCa relation (nH),[4],no effect
same,FP (mP),[2]; LOPAC 1280 library,91.8 mP
same,FP (mP),[2]; TOCRIScreen library,83.1 mP
same,Decrease of myofibrilar ATPase activity,[3],40–50%
same,solubility,[5],> 25 mM
same,T∆S,Ca2+-saturated cTnC,1.84 ± 0.72 kcal/mol
same,∆H,Ca2+-saturated cTnC,-4.64 ± 0.758 kcal/mol
same,Kd,Ca2+-saturated cTnC,11.9 ± 5.5 µM
same,FP at higher drug concentrations,[1],sudden increase in the FP
same,FP (mP),[1]; TOCRIScreen library,73.2 mP
same,Total fluorescence intensity of the assay mixture,[1],not affected
same,Effect on FP from the cTnC FAM-cTnIAR mixture,[1],decreased the FP
same,Effect on the interaction / binding affinity of cTnC for cTnIAR,cTnC-cTnIAR interaction,reduced by several orders of magnitude
CC(C)CCCC(C)C1CCC2C3CC(NCCCNCCCCNCCCN)C4CC(O)CCC4(C)C3CCC12C (centres unmarked) [Claramine],Effect on calcium sensitivity / force-pCa relation,[4],no or little effect
same,Decrease of myofibrilar ATPase activity,[3],40–50%
same,solubility,"[5]; aqueous solutions, read-out: Solubility in aqueous solutions",> 25 mM
same,T∆S,Ca2+-saturated cTnC,5.21 ± 0.311 kcal/mol
same,∆H,Ca2+-saturated cTnC,-1.1 ± 0.311 kcal/mol
same,Kd,Ca2+-saturated cTnC,21.6 ± 1.8 µM
same,FP at higher drug concentrations,[1],sudden increase in the FP
same,FP (mP),[1]; LOPAC 1280 library,53.9 mP
same,Total fluorescence intensity of the assay mixture,[1],not affected
same,Effect on FP from the cTnC FAM-cTnIAR mixture,[1],decreased the FP
same,Effect on the interaction / binding affinity of cTnC for cTnIAR,cTnC-cTnIAR interaction,no or little effect
O=C(O)C[C@H]1CC[C@H](c2ccc(NC(=O)c3nnc(Nc4ccc(F)c(F)c4)o3)cc2)CC1 [AZD 3988],FP (mP),[1]; TOCRIScreen library,115.5 mP
CC1Cc2ccccc2N1NC(=O)c1ccc(Cl)c(S(N)(=O)=O)c1 (centres unmarked) [Indapamide],FP (mP),[1]; ENZO Screenwell library,116.5 mP
C[C@]12C=CC(=O)C=C1CC[C@@H]1C2=CC[C@]2(C)[C@@H](C(=O)CN3CCN(c4cc(N5CCCC5)nc(N5CCCC5)n4)CC3)CC[C@@H]12.O=C(O)/C=C\C(=O)O [U-74389G maleate],FP (mP),[1]; LOPAC 1280 library,115.3 mP
COc1ccc(-c2oc3c(CC=C(C)C)c(O)cc(O)c3c(=O)c2O)cc1 [Icaritin],Effect on myofibrillar ATPase activity,[3],no effect
same,FP (mP),[1]; LOPAC 1280 library,64.6 mP
same,Effect on FP from the cTnC FAM-cTnIAR mixture,[1],decreased the FP
N#CC(C#N)=C(N)/C(C#N)=C/c1ccc(O)cc1 [Tyrphostin AG 112],FP (mP),[1]; LOPAC 1280 library,115.8 mP
NC(=O)N1c2ccccc2CC(=O)c2ccccc21 [Oxcarbazepine],FP (mP),[1]; ENZO Screenwell library,70.9 mP
CC(C)c1cccc(C(C)C)c1N1C(=O)c2ccc(O)cc2C1=O [5-HPP-33],FP (mP),[2]; LOPAC 1280 library,112 mP
same,Effect on FP from a mixture of FAM-cTnISP and cTnC,[2],increased the FP
same,Effect on ATPase activity of cardiac myofibrils,[3],no or little activation
N.N.N.N.N.N.N.N.N.N.N.N.N.N.[Cl-].[Cl-].[Cl-].[Cl-].[Cl-].[Cl-].[O-2].[O-2].[Ru+3].[Ru+3].[Ru+4] [Ruthenium red],FP (mP),[2]; LOPAC 1280 library,83.7 mP
same,FP (mP),[1]; LOPAC 1280 library,44.3 mP
"N.N.[Cl][Pt][Cl] [Cisplatin, Cis-Diamineplatinum(Ii) Dichloride]",FP (mP),[1]; ENZO Screenwell library,61.9 mP
same,FP (mP),[1]; LOPAC 1280 library,56.6 mP
Cl.c1ccc(C2CCCC2NC2=NCCCCCCCCCCC2)cc1 (centres unmarked) [cDPCP],FP (mP),[1]; LOPAC 1280 library,67.5 mP
COc1cc(N2CCN(C)CC2)ccc1Nc1nccc(-c2cn(C)c3cnccc23)n1 [AZ 191],FP (mP),[2]; LOPAC 1280 library,88.5 mP
same,FP (mP),[2]; TOCRIScreen library,83.4 mP
[H]/N=C(/NCCCCC)N/N=C/c1c[nH]c2ccc(OC)cc12 [Tegaserod maleate],FP (mP),[2]; LOPAC 1280 library,78.4 mP
O=C(NCc1ccc(C(F)(F)F)cc1)Nc1cccc2cnccc12 [A 425619],FP (mP),[1]; TOCRIScreen library,105.5 mP
COC(=O)[C@H]1[C@H]2C[C@@H]3c4[nH]c5cc(OC)ccc5c4CCN3C[C@H]2C[C@@H](OC(=O)c2cc(OC)c(OC)c(OC)c2)[C@@H]1OC [Reserpine],FP (mP),[2]; ENZO Screenwell library,88.4 mP
[H]/N=C(\N/C(=N/[H])NCCCCCCNC(=N)NC(=N)Nc1ccc(Cl)cc1)Nc1ccc(Cl)cc1 [Chlorhexidine Dihydrochloride],FP (mP),[1]; ENZO Screenwell library,58.8 mP
OCCN1CCN(CC/C=C2/c3ccccc3Sc3ccc(C(F)(F)F)cc32)CC1 [cis-(Z)-Flupenthixol dihydrochloride],FP (mP),[2]; LOPAC 1280 library,87.6 mP
Cn1c(NC[C@@H](N)Cc2ccccc2)nc(-c2ccncc2)c(-c2ccc3ccccc3c2)c1=O [AMG 548],FP (mP),[2]; TOCRIScreen library,90 mP
CCN(CC)CCOc1ccc(Nc2ncc3cc(-c4c(Cl)cccc4Cl)c(=O)n(C)c3n2)cc1.Cl.Cl [PD 166285 dihydrochloride],FP (mP),[2]; TOCRIScreen library,78.7 mP
O=C(c1ccc(OCCN2CCCCC2)cc1)c1c(-c2ccc(O)cc2)sc2cc(O)ccc12 [Raloxifene.HCl],FP (mP),[2]; ENZO Screenwell library,76.9 mP
same,FP (mP),[2]; LOPAC 1280 library,85.5 mP
same,FP (mP),"[2]; TOCRIScreen library, listed as Raloxifene hydrochloride",87.9 mP and 82.1 mP
CSc1ccc2c(c1)C(N1CCN(C)CC1)Cc1ccccc1S2 (centres unmarked) [Methiothepin mesylate],FP (mP),[2]; LOPAC 1280 library,86.5 mP
COc1cc(C(=O)NC2CCN(C)CC2)ccc1Nc1ncc2c(n1)N(C1CCCC1)CC(F)(F)C(=O)N2C [Ro 3280],FP (mP),[2]; TOCRIScreen library,81.8 mP
c1ccc(Cn2c(-c3ccc(OC[C@H](C4CCNCC4)n4c(-c5ccccc5)nc5ccccc54)cc3)nc3ccccc32)cc1 [Deltarasin],FP (mP),[2]; TOCRIScreen library,87.7 mP
COc1cc2ncnc(Nc3ccc(F)c(Cl)c3)c2cc1OCCCN1CCOCC1 [Gefitinib],FP (mP),[2]; ENZO Screenwell library,83.7 mP
same,FP (mP),[2]; TOCRIScreen library,81.8 mP
CCn1c(-c2nonc2N)nc2cnc(Oc3cccc(NC(=O)c4ccc(OCCN5CCOCC5)cc4)c3)cc21 [GSK 269962],FP (mP),[1]; TOCRIScreen library,104.8 mP
CCCCCCCCCCCCCCCC(=O)OC(CC(=O)O)C[N+](C)(C)C.[Cl-] (racemic) [Palmitoyl-DL-Carnitine chloride],FP (mP),[2]; LOPAC 1280 library,109.8 mP
CCCNc1ccc2ncc(-c3ccc4[nH]ncc4c3)n2n1.O=C(O)C(F)(F)F [CHR 6494 trifluoroacetate],FP (mP),[2]; TOCRIScreen library,81.9 mP
O[C@@H](CN1CCNCC1)Cn1c2ccc(Br)cc2c2cc(Br)ccc21 [Bax channel blocker],FP (mP),[2]; TOCRIScreen library,77.1 mP
CS(=O)(=O)O.Cn1cc(C2=C(c3cn(CCCSC(=N)N)c4ccccc34)C(=O)NC2=O)c2ccccc21 [Ro 31-8220 mesylate],FP (mP),[2]; TOCRIScreen library,57.9 mP
CCCC[P+](CCCC)(CCCC)Cc1ccc(NC(=O)[C@H](Cc2ccc3ccccc3c2)NC(=NC2CCCCC2)NC2CCCCC2)cc1.Cl.[Cl-] [WIN 64338 hydrochloride],FP (mP),[1]; TOCRIScreen library,71 mP
Cc1cccc(C)c1-n1c(=O)c2cnc(Nc3ccc(N4CCN(C)CC4)cc3)nc2n2c3ccccc3nc12 [TC-S 7003],FP (mP),[2]; TOCRIScreen library,73.5 mP
NCCOc1cc(C(=O)Nc2cc(OCCN)c3ccccc3n2)nc(C(=O)Nc2cc(OCCN)c3ccccc3n2)c1 [Pyridostatin trifluoroacetate salt],FP (mP),[2]; LOPAC 1280 library,85.6 mP
